≈ marks a conversion by molar mass, not a printed value.
Tests used:
MCF-7 = experiment: Human cancer cell line minipanel, Breast MCF-7; assay type: cell-based
Procedure: (§1) The cyclic phosphate prodrugs, along with the parent compounds were evaluated against a minipanel of human cancer cell lines and murine P388 lymphocytic leukemia.

DU-145 = experiment: Human cancer cell line minipanel, Prostate DU-145; assay type: cell-based
Procedure: as §1

NCI-H460 = experiment: Human cancer cell line minipanel, Lung-NSC NCI-H460; assay type: cell-based
Procedure: as §1

SF268 = experiment: Human cancer cell line minipanel, CNS SF268; assay type: cell-based
Procedure: as §1

KM20L2 = experiment: Human cancer cell line minipanel, Colon KM20L2; assay type: cell-based
Procedure: as §1

BXPC-3 = experiment: Human cancer cell line minipanel, Pancreas-a BXPC-3; assay type: cell-based
Procedure: as §1

[1] = system: NCI panel of cancer cell lines; details: J. Nat. Prod. 56:1682-1687, 1993; cited from earlier work
RNA viruses = details: J. Nat. Prod. 55:1569-1581; 1992; cited from earlier work
[2] = system: minipanel of human cancer cell lines and murine P388 lymphocytic leukemia; experiment: Minipanel of human cancer cell lines and murine P388 lymphocytic leukemia (summary in words); assay type: cell-based; details: summary of the cancer cell line evaluations of Table 2
Procedure: as §1
The corresponding 3,5-cyclic phosphates were less inhibitory under the experimental conditions employed. However, cleavage of the phosphate groups is expected to be very effective in vivo and such anticancer evaluations are now underway as part of the further preclinical development of these new anticancer drug candidates. (Pettit, G. R., et al., J. Nat. Prod. 2003, 66, 92-96.), (Dowlati, A., et al., Cancer Research 2002, 62, 3408-3416.), (Dziba, J. M., et al., Thyroid 2002, 12, 1063-1070.), (Eikesdal, H. P., et al., Cancer Lett. 2002, 178, 209-217.), (Prise, V., et al., Int. J. Oncology 2002, 21, 717-726.), (Hill, S. A., et al., Int. J. Cancer 2002, 102, 70-74.)

[3] = Aqueous solubility at 25° C.; assay type: physicochemical

SMILES	GI50 Breast MCF-7 (MCF-7)	GI50 Prostate DU-145 (DU-145)	GI50 Lung-NSC NCI-H460 (NCI-H460)	GI50 CNS SF268 (SF268)	GI50 Colon KM20L2 (KM20L2)	GI50 Pancreas-a BXPC-3 (BXPC-3)	GI50 [1]	activity against a range of RNA viruses (RNA viruses)	cancer cell growth inhibitory activity (in words) [2]	Aqueous Solubility 25° C. [3]
O=C1N[C@H]2[C@@H]3OP(=O)([O-])O[C@@H]3[C@@H](O)C[C@@H]2c2cc3c(cc21)OCO3.[Li+] (relative stereo) [11a, Lithium 7-deoxy-trans-dihydro-narcistatin]	>1 µg/mL	>1 µg/mL	>1 µg/mL	>1 µg/mL	>1 µg/mL	>1 µg/mL				
O=C1N[C@@H]2C(=C[C@H](O)[C@H]3OP(=O)([O-])O[C@H]32)c2cc3c(cc21)OCO3.[K+] [10b, Potassium 7-Deoxy-narcistatin]	>1 µg/mL	>1 µg/mL	>1 µg/mL	>1 µg/mL	>1 µg/mL	>1 µg/mL				
O=C1N[C@H]2[C@@H]3OP(=O)([O-])O[C@@H]3[C@@H](O)C[C@@H]2c2cc3c(cc21)OCO3.[Na+] (relative stereo) [compound 11, Sodium 7-Deoxy-trans-dihydro-narcistatin]	7.2 µg/mL	>10 µg/mL	>10 µg/mL	>10 µg/mL	>10 µg/mL	>10 µg/mL				
O=C1N[C@H]2[C@@H]3OP(=O)([O-])O[C@@H]3[C@@H](O)C[C@@H]2c2cc3c(c(O)c21)OCO3.[K+] (relative stereo) [12b, Potassium trans-dihydro-narcistatin]	0.64 µg/mL	0.54 µg/mL	>1 µg/mL	>1 µg/mL	>1 µg/mL	>1 µg/mL				
O=C1NC2C(CC(O)C(O)C2O)c2cc3c(c(O)c21)OCO3 (stereo not drawn) [3a, cis-dihydronarciclasine, reference compound]							3800 nM	completely inactive		
O=C1N[C@@H]2C(=C[C@H](O)[C@H]3OP(=O)([O-])O[C@H]32)c2cc3c(cc21)OCO3.[Na+] [compound 10, Sodium 7-Deoxy-narcistatin]	4.0 µg/mL	3.9 µg/mL	4.7 µg/mL	6.3 µg/mL	5.6 µg/mL	5.3 µg/mL				
O=C1N[C@H]2[C@H](O)[C@H](O)[C@@H](O)C[C@@H]2c2cc3c(c(O)c21)OCO3 (relative stereo) [1a, trans-dihydronarciclasine]	0.0053 µg/mL (≈ 0.0171 µM)	0.0066 µg/mL (≈ 0.0213 µM)	0.0092 µg/mL (≈ 0.0297 µM)	0.020 µg/mL (≈ 0.0647 µM)	0.015 µg/mL (≈ 0.0485 µM)	0.012 µg/mL (≈ 0.0388 µM)	12.6 nM	strong activity	strong cancer cell growth inhibitory activity	<1000 µg/mL
O=C1N[C@H]2[C@@H]3OP(=O)([O-])O[C@@H]3[C@@H](O)C[C@@H]2c2cc3c(c(O)c21)OCO3.[Na+] (relative stereo) [compound 12, Sodium trans-dihydro-narcistatin]	4.6 µg/mL	5.2 µg/mL	7.8 µg/mL	8.8 µg/mL	9.6 µg/mL	5.6 µg/mL				
O=C1N[C@@H]2C(=C[C@H](O)[C@@H](O)[C@H]2O)c2cc3c(cc21)OCO3 [2c, 7-deoxynarciclasine, reference compound]	0.046 µg/mL (≈ 0.158 µM)	0.051 µg/mL (≈ 0.175 µM)	0.053 µg/mL (≈ 0.182 µM)	0.120 µg/mL (≈ 0.412 µM)	0.084 µg/mL (≈ 0.288 µM)	0.070 µg/mL (≈ 0.24 µM)				<1000 µg/mL
O=C1N[C@H]2[C@H](O)[C@H](O)[C@@H](O)C[C@@H]2c2cc3c(cc21)OCO3 (relative stereo) [1c, 7-deoxy-trans-dihydronarciclasine]	0.034 µg/mL (≈ 0.116 µM)	0.040 µg/mL (≈ 0.136 µM)	0.043 µg/mL (≈ 0.147 µM)	0.059 µg/mL (≈ 0.201 µM)	0.051 µg/mL (≈ 0.174 µM)	0.046 µg/mL (≈ 0.157 µM)			strong cancer cell growth inhibitory activity	<1000 µg/mL
O=C1N[C@H]2[C@@H]3OP(=O)([O-])O[C@@H]3[C@@H](O)C[C@@H]2c2cc3c(c(O)c21)OCO3.[Li+] (relative stereo) [12a, Lithium trans-dihydro-narcistatin]	>1 µg/mL	>1 µg/mL	>1 µg/mL	>1 µg/mL	>1 µg/mL	>1 µg/mL				
O=C1N[C@H]2[C@@H]3OP(=O)([O-])O[C@@H]3[C@@H](O)C[C@@H]2c2cc3c(cc21)OCO3.[K+] (relative stereo) [11b, Potassium 7-deoxy-trans-dihydro-narcistatin]	>1 µg/mL	>1 µg/mL	>1 µg/mL	>1 µg/mL	>1 µg/mL	>1 µg/mL				
O=C1N[C@@H]2C(=C[C@H](O)[C@H]3OP(=O)([O-])O[C@H]32)c2cc3c(cc21)OCO3.[Li+] [10a, Lithium 7-Deoxy-narcistatin]	>1 µg/mL	>1 µg/mL	>1 µg/mL	>1 µg/mL	>1 µg/mL	>1 µg/mL				
